Source: ChEMBL document CHEMBL3792350, “Discovery of a Potent and Orally Efficacious TGR5 Receptor Agonist” (ACS Med Chem Lett, 2016)

Experiments:
Assay type in all cases: ADME, organism-based
[1] = Half life in C57Bl/6 mouse at 1 mg/kg, iv as bolus dose by LC-MS/MS analysis; conditions: in vivo
[2] = AUC in C57Bl/6 mouse at 3 mg/kg administered via oral gavage by LC-MS/MS analysis; conditions: in vivo
[3] = Oral bioavailability in C57Bl/6 mouse at 3 mg/kg administered via oral gavage by LC-MS/MS analysis; conditions: in vivo
[4] = Clearance in Sprague-Dawley rat at 1 mg/kg, iv as bolus dose by LC-MS/MS analysis; conditions: in vivo
[5] = Volume of distribution at steady state in C57Bl/6 mouse at 1 mg/kg, iv as bolus dose by LC-MS/MS analysis; conditions: in vivo, read-out: Vdss
[6] = Oral bioavailability in Sprague-Dawley rat at 3 mg/kg administered via oral gavage by LC-MS/MS analysis; conditions: in vivo
Mus musculus = experiment: fAUC in po dosed diet-induced obese C57 mouse administered as single dose 15 mins; conditions: in vivo, 0.25 h
[7] = Clearance in C57Bl/6 mouse at 1 mg/kg, iv as bolus dose by LC-MS/MS analysis; conditions: in vivo
[8] = Volume of distribution at steady state in Sprague-Dawley rat at 1 mg/kg, iv as bolus dose by LC-MS/MS analysis; conditions: in vivo, read-out: Vdss
[9] = Half life in Sprague-Dawley rat at 1 mg/kg, iv as bolus dose by LC-MS/MS analysis; conditions: in vivo
[10] = Cmax in C57Bl/6 mouse at 3 mg/kg administered via oral gavage by LC-MS/MS analysis; parameters: dose 3 mg/kg, route oral; conditions: in vivo
[11] = Cmax in Sprague-Dawley rat at 3 mg/kg administered via oral gavage by LC-MS/MS analysis; parameters: dose 3 mg/kg, route oral; conditions: in vivo
[12] = AUC in Sprague-Dawley rat at 3 mg/kg administered via oral gavage by LC-MS/MS analysis; conditions: in vivo

Row | half-life [1] [min] | AUC [2] [ng·h/mL] | bioavailability [3] [%] | clearance [4] [mL/min/kg] | Vd [5] [L/kg] | bioavailability [6] [%] | fAUC (Mus musculus) [ng·h/mL] | clearance [7] [mL/min/kg] | Vd [8] [L/kg] | half-life [9] [min] | Cmax [10] [ng/mL] | Cmax [11] [ng/mL] | AUC [12] [ng·h/mL] | Structure (SMILES)
1 | 19.8 | 754 | 71 | 79.7 | 0.83 | 31 | 231.38 | 47.3 | 2.05 | 19.2 | 789 | 148 | 207 | COc1ccc(C(C)(C)c2cnc(SCCOc3ccc(-n4ccnc4)cc3)n2-c2ccc(F)cc2)cc1OC
2 | 45.6 | 73.5 | 7 |  | 1.54 |  |  | 45.5 |  |  | 51.8 |  |  | COc1ccc(C(C)(C)c2cnc(SCc3c(F)cccc3Cl)n2-c2ccc(F)cc2)cc1OC
